Source: PubChem BioAssay (NCI)
Values joined by “and” are separate entries in the source; they are usually repeats but may differ in a detail not shown here. Equal values may be shown once.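 Step 1: Grow cells in 96-well plates. Step 2: Expose to compound for 48 hours at 5 concentrations. Step 3: Interpolate endpoints linearly; if unreached, use highest concentration. GI50 = concentration required for 50% inhibition of growth. TGI is the concentration that stops growth completely.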

Key:
Assay in all cases: DTP human tumour cell line panel, 48 h
[1] = test system: OVCAR-4 ovarian
[2] = test system: CCRF-CEM leukemia
[3] = test system: SF-539 CNS
[4] = test system: 786-0 renal
[5] = test system: SNB-19 CNS
[6] = test system: HCT-15 colon
[7] = test system: SR leukemia
[8] = test system: NCI-H23 lung
[9] = test system: CAKI-1 renal

| Structure (SMILES) | TGI [1] [µM] | TGI [2] | TGI [3] [µM] | TGI [4] [µM] | TGI [5] [µM] | TGI [6] [µM] | TGI [7] [µM] | TGI [8] [µM] | TGI [9] [µM] | GI50 [2] [µM] | GI50 [3] [µM] | GI50 [4] [µM] | GI50 [5] [µM] | GI50 [9] [µM] | GI50 [6] [µM] | GI50 [1] [µM] | GI50 [8] [µM] |
| --- | --- | --- | --- | --- | --- | --- | --- | --- | --- | --- | --- | --- | --- | --- | --- | --- | --- |
| COc1c(O)c2c3c(cc(C)cc3c1C(C)C)OC2 | > 100 | > 100 µM | > 100 | > 100 | > 100 | > 100 | > 100 | > 100 | – | – | – | – | – | – | – | – | – |
| O=[N+]([O-])c1ccc(-n2nnc(C3=NCCN3)c2-c2ccccc2)cc1 | > 100 | > 100 µM | > 100 | > 100 | > 100 | > 100 | > 100 | > 100 | > 100 | – | – | – | – | – | – | – | – |
| COc1cc2c[n+](C)c3c4cc(OC)c(OC(C)C)cc4ccc3c2cc1OC | > 100 | > 100 µM | > 100 | > 100 | > 100 | > 100 | > 100 | > 100 | > 100 | – | – | – | – | – | – | – | – |
| O=C(O)CC[C@H](NC(=O)c1ccc(-n2nc3ccc(O)cc3nc2=O)cc1)C(=O)O | > 100 | > 100 µM | > 100 | > 100 | > 100 | > 100 | > 100 | > 100 | – | – | – | – | – | – | – | – | – |
| COc1ccc(/C=C/c2cc(OC)c(OC)c(OC)c2)cc1 | > 100 | > 100 µM | 13.6 | > 100 | > 100 | > 93.5 | – | > 81.5 | 98.4 | – | – | – | – | – | – | – | – |
| N/N=C(/C(=O)Nc1cccc(Cl)c1)C(C(=O)c1ccc(O)cc1O)C1OC(=O)c2ccccc21 (stereo not drawn) | > 100 | > 100 µM | > 100 | > 100 | > 100 | > 100 | > 100 | > 100 | – | – | – | – | – | – | – | – | – |
| c1cncc(C2N3CCCCC3[C@@H]3c4[nH]c5ccccc5c4CCN23)c1 (stereo partly drawn) | > 100 | > 100 µM | > 100 | > 100 | > 100 | > 100 | – | > 100 | > 100 | – | – | – | – | – | – | – | – |
| O=C(c1ccc(Cl)cc1Cl)C1[C@H]2C(=O)N(c3ccc(Cc4ccc(N5C(=O)[C@@H]6ON(c7ccccc7)C(C(=O)c7ccc(Cl)cc7Cl)[C@@H]6C5=O)cc4)cc3)C(=O)[C@H]2ON1c1ccccc1 (stereo partly drawn) | > 50 | > 50 µM | > 50 | > 50 | > 50 | > 50 | > 50 | > 50 | > 50 | – | – | – | – | – | – | – | – |
| CCOC(=O)CC[C@H](NC(=O)c1nc[nH]c1[N+](=O)[O-])C(=O)OCC | > 100 | > 100 µM | > 100 | > 100 | > 100 | > 100 | > 100 | > 100 | – | – | – | – | – | – | – | – | – |
| CCCCCCCCCCCCCCCC(=O)OCC1OC(n2cc(F)c(=O)[nH]c2=O)C(N)C(O)C1O (stereo not drawn) | 31.2 | 31.7 µM | 34.8 | 35.2 | 39.2 | – | – | 39.3 | 37.5 | – | – | – | – | – | – | – | – |
| CCCCCCC[CH2][Sn]([CH2]CCCCCCC)([O]c1cccc2cccnc12)[O]c1cccc2cccnc12 | – | 3.25 µM | 4.68 | 2.84 | 9.31 | 10.8 | – | – | 8.41 | 0.506 | 2.05 | 1.49 | 2.94 | 2.54 | 2.53 | – | – |
| COc1ccc2c(c1)C(=O)c1ccc(OC)cc1C2=S | – | > 100 µM | > 100 | > 100 | > 100 | > 100 | > 100 | > 100 | – | – | – | – | – | – | – | – | – |
| OC1(C23CC4CC(CC(C4)C2)C3)CSCC1(O)C12CC3CC(CC(C3)C1)C2 (stereo not drawn) | > 100 | > 10 µM | > 100 | > 100 | > 100 | – | > 100 | > 100 | > 100 | – | – | – | – | – | – | – | – |
| Cc1ccc2c(c1)-c1c3c(nn1-c1ccccc1)-c1ccccc1SC3O2 (stereo not drawn) | – | > 100 µM | > 100 | > 100 | – | – | – | > 100 | – | – | – | – | – | – | – | – | – |
| CC(CN(C)C)/C(=N\Nc1ccccc1)c1ccccc1 (stereo not drawn) | 19.8 | 29.3 µM | 0.774 | 29.5 | 34.4 | 11.1 | 23.1 | 23.4 | – | – | – | – | – | – | – | – | – |
| CC[C@@]1(O)C(=O)OCc2c1cc1n(c2=O)Cc2cc3cc4c(cc3nc2-1)OCO4 | – | 0.0152 µM and < 0.0414 µM | 0.0013 | 0.00274 | – | > 58.9 | > 100 | – | – | – | – | – | – | – | – | – | – |
| CSc1nnc(CCC(=O)Nc2c(C)cccc2C)o1 | > 100 | > 100 µM | > 100 | > 100 | > 100 | > 100 | – | > 100 | > 100 | – | – | – | – | – | – | – | – |
| NC(=O)CN(CC(N)=O)C(N)=O | > 100 | > 100 µM | > 100 | > 100 | > 100 | > 100 | – | > 100 | > 100 | – | – | – | – | – | – | – | – |
| CC(=O)[CH-]C(=O)c1ccccc1.CC(=O)[CH-]C(=O)c1ccccc1.CC[O-].CC[O-].[Hf+4] | > 100 | > 100 µM | > 100 | > 100 | > 100 | > 100 | – | > 100 | > 100 | 69.1 | > 100 | > 100 | > 100 | > 100 | > 100 | > 100 | > 100 |
